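Cultured in 96-well plates, cells were exposed to test compound for 48 hours across five concentrations. At the GI50, growth is halved. The concentration for full growth arrest is given as TGI.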
Columns and labels:
Experiment in all cases: inhibition of tumour cell growth, NCI panel, 48 h
786-0 renal = system: 786-0 renal
A498 renal = system: A498 renal
A549 NSCLC = system: A549 NSCLC
ACHN renal = system: ACHN renal
BT-549 breast = system: BT-549 breast
CAKI-1 renal = system: CAKI-1 renal
COLO 205 colon = system: COLO 205 colon
DU-145 prostate = system: DU-145 prostate
EKVX NSCLC = system: EKVX NSCLC
HCC-2998 colon = system: HCC-2998 colon
HCT-116 colon = system: HCT-116 colon
HCT-15 colon = system: HCT-15 colon
HL-60(TB) leukemia = system: HL-60(TB) leukemia
HOP-62 NSCLC = system: HOP-62 NSCLC
HS 578T breast = system: HS 578T breast
HT29 colon = system: HT29 colon
IGROV1 ovarian = system: IGROV1 ovarian
K-562 leukemia = system: K-562 leukemia
KM12 colon = system: KM12 colon
LOX IMVI melanoma = system: LOX IMVI melanoma
M14 melanoma = system: M14 melanoma
MALME-3M melanoma = system: MALME-3M melanoma
MCF7 breast = system: MCF7 breast
MDA-MB-435 = system: MDA-MB-435
MOLT-4 leukemia = system: MOLT-4 leukemia
NCI-H226 lung = system: NCI-H226 lung
NCI-H23 lung = system: NCI-H23 lung
NCI-H522 lung = system: NCI-H522 lung
OVCAR-3 ovarian = system: OVCAR-3 ovarian
OVCAR-4 ovarian = system: OVCAR-4 ovarian
OVCAR-8 ovarian = system: OVCAR-8 ovarian
PC-3 prostate = system: PC-3 prostate
RPMI-8226 leukemia = system: RPMI-8226 leukemia
RXF 393 renal = system: RXF 393 renal
SF-268 CNS = system: SF-268 CNS
SF-295 CNS = system: SF-295 CNS
SF-539 CNS = system: SF-539 CNS
SK-MEL-2 melanoma = system: SK-MEL-2 melanoma
SK-MEL-28 melanoma = system: SK-MEL-28 melanoma
SK-MEL-5 melanoma = system: SK-MEL-5 melanoma
SK-OV-3 ovarian = system: SK-OV-3 ovarian
SN12C renal = system: SN12C renal
SNB-19 CNS = system: SNB-19 CNS
SNB-75 CNS = system: SNB-75 CNS
SR leukemia = system: SR leukemia
SW-620 colon = system: SW-620 colon
T-47D breast = system: T-47D breast
TK-10 renal = system: TK-10 renal
U251 CNS = system: U251 CNS
UACC-257 melanoma = system: UACC-257 melanoma
UO-31 renal = system: UO-31 renal

`Cc1cc(N2CCN(C)CC2)nc(NCc2cc(Nc3ccnc4cc(Cl)ccc34)ccc2F)n1` showed a GI50 (786-0 renal) of 1.84 µM, a TGI (786-0 renal) of 3.7 µM and a GI50 (A498 renal) of 1.52 µM. It also gave a TGI (A498 renal) of 4.03 µM, a GI50 (A549 NSCLC) of 2.34 µM and a TGI (A549 NSCLC) of 5.3 µM. It also gave a GI50 (ACHN renal) of 1.88 µM, a TGI (ACHN renal) of 3.45 µM and a GI50 (BT-549 breast) of 2.13 µM. The TGI (BT-549 breast) was 4.64 µM, the GI50 (CAKI-1 renal) was 2.68 µM and the TGI (CAKI-1 renal) was 8.61 µM. It also gave a GI50 (COLO 205 colon) of 0.71 µM, a TGI (COLO 205 colon) of 2.12 µM and a GI50 (DU-145 prostate) of 2.52 µM. For the same compound, the TGI (DU-145 prostate) was over 100 µM, the GI50 (EKVX NSCLC) was 2.5 µM and the TGI (EKVX NSCLC) was over 100 µM. For the same compound, the GI50 (HCC-2998 colon) was 1.79 µM, the TGI (HCC-2998 colon) was 4.85 µM and the GI50 (HCT-116 colon) was 1.5 µM. The TGI (HCT-116 colon) was 3.3 µM, the GI50 (HCT-15 colon) was 2.21 µM and the TGI (HCT-15 colon) was 8.36 µM. For the same compound, the GI50 (HL-60(TB) leukemia) was 1.86 µM, the TGI (HL-60(TB) leukemia) was 3.96 µM and the GI50 (HOP-62 NSCLC) was 1.63 µM. The TGI (HOP-62 NSCLC) was 3.83 µM, the GI50 (HS 578T breast) was 2.82 µM and the TGI (HS 578T breast) was 7.97 µM. The GI50 (HT29 colon) was 1.24 µM, the TGI (HT29 colon) was 3.38 µM and the GI50 (IGROV1 ovarian) was 2.04 µM. For the same compound, the TGI (IGROV1 ovarian) was 7.26 µM, the GI50 (K-562 leukemia) was 1.9 µM and the TGI (K-562 leukemia) was 5.7 µM. For the same compound, the GI50 (KM12 colon) was 3.2 µM, the TGI (KM12 colon) was over 100 µM and the GI50 (LOX IMVI melanoma) was 1.67 µM. It also gave a TGI (LOX IMVI melanoma) of 3.14 µM, a GI50 (M14 melanoma) of 2 µM and a TGI (M14 melanoma) of 3.86 µM. It also gave a GI50 (MALME-3M melanoma) of 2.08 µM, a TGI (MALME-3M melanoma) of 3.89 µM and a GI50 (MCF7 breast) of 0.334 µM. For the same compound, the TGI (MCF7 breast) was 2.75 µM, the GI50 (MDA-MB-435) was 1.76 µM and the TGI (MDA-MB-435) was 3.9 µM. For the same compound, the GI50 (MOLT-4 leukemia) was 1.9 µM, the TGI (MOLT-4 leukemia) was over 100 µM and the GI50 (NCI-H226 lung) was 7.88 µM. The TGI (NCI-H226 lung) was 55.4 µM, the GI50 (NCI-H23 lung) was 3.46 µM and the TGI (NCI-H23 lung) was over 100 µM. It also gave a GI50 (NCI-H522 lung) of 1.92 µM, a TGI (NCI-H522 lung) of 3.88 µM and a GI50 (OVCAR-3 ovarian) of 2 µM. The TGI (OVCAR-3 ovarian) was 4.15 µM, the GI50 (OVCAR-4 ovarian) was 1.42 µM and the TGI (OVCAR-4 ovarian) was 6.13 µM. For the same compound, the GI50 (OVCAR-8 ovarian) was 3.13 µM, the TGI (OVCAR-8 ovarian) was 9.68 µM and the GI50 (PC-3 prostate) was 3.51 µM. For the same compound, the TGI (PC-3 prostate) was over 100 µM, the GI50 (RPMI-8226 leukemia) was 2.2 µM and the TGI (RPMI-8226 leukemia) was 5.48 µM. For the same compound, the GI50 (RXF 393 renal) was 1.63 µM, the TGI (RXF 393 renal) was 3.82 µM and the GI50 (SF-268 CNS) was 1.99 µM. The TGI (SF-268 CNS) was 7.76 µM, the GI50 (SF-295 CNS) was 1.68 µM and the TGI (SF-295 CNS) was 3.24 µM. For the same compound, the GI50 (SF-539 CNS) was 1.69 µM, the TGI (SF-539 CNS) was 3.24 µM and the GI50 (SK-MEL-2 melanoma) was 1.95 µM. The TGI (SK-MEL-2 melanoma) was 3.8 µM, the GI50 (SK-MEL-28 melanoma) was 1.67 µM and the TGI (SK-MEL-28 melanoma) was 3.28 µM. For the same compound, the GI50 (SK-MEL-5 melanoma) was 1.44 µM, the TGI (SK-MEL-5 melanoma) was 2.75 µM and the GI50 (SK-OV-3 ovarian) was 2.64 µM. The TGI (SK-OV-3 ovarian) was 6.27 µM, the GI50 (SN12C renal) was 2.3 µM and the TGI (SN12C renal) was 5.62 µM. The GI50 (SNB-19 CNS) was 3.32 µM, the TGI (SNB-19 CNS) was over 100 µM and the GI50 (SNB-75 CNS) was 1.69 µM. It also gave a TGI (SNB-75 CNS) of 5.56 µM, a GI50 (SR leukemia) of 1.94 µM and a TGI (SR leukemia) of 4.89 µM. For the same compound, the GI50 (SW-620 colon) was 1.85 µM, the TGI (SW-620 colon) was 4.01 µM and the GI50 (T-47D breast) was 1.09 µM. For the same compound, the TGI (T-47D breast) was 3.62 µM, the GI50 (TK-10 renal) was 2.25 µM and the TGI (TK-10 renal) was 5.82 µM. The GI50 (U251 CNS) was 1.87 µM, the TGI (U251 CNS) was 3.73 µM and the GI50 (UACC-257 melanoma) was 2.11 µM. For the same compound, the TGI (UACC-257 melanoma) was 3.9 µM, the GI50 (UO-31 renal) was 1.76 µM and the TGI (UO-31 renal) was 3.72 µM.
